Values after ≈ are worked out from the molar mass of the structure shown.
System: Vaccinia virus
Assay: Antiviral activity against Vaccinia virus infected in primary rabbit kidney cells assessed as inhibition of virus-induced cytopathogenicity
Format: functional
Settings: Orthopoxvirus vaccinia

Row | SMILES | MIC [µM]
1 | O=c1[nH]c(=O)n([C@H]2C[C@H](O)[C@@H](CO)O2)cc1OCc1ccc([N+](=O)[O-])cc1 | > 260
2 | O=c1[nH]c(=O)n([C@H]2C[C@H](O)[C@@H](CO)O2)cc1OCc1ccccc1 | > 300
3 | Nc1ncnc2c1ncn2[C@@H]1O[C@H](CO)[C@@H](O)[C@@H]1O [VIDARABINE] | 1.4 (≈ 0.374 µg/mL)
4 | O=c1[nH]c(=O)n([C@@H]2O[C@H](CO)[C@@H](O)[C@H]2O)cc1OCc1ccccc1 | > 600
5 | O=c1[nH]c(=O)n([C@H]2C[C@H](O)[C@@H](CO)O2)cc1I [IDOXURIDINE] | 1.4 (≈ 0.496 µg/mL)
6 | O=C(O)COc1cn([C@H]2C[C@H](O)[C@@H](CO)O2)c(=O)[nH]c1=O | > 600
7 | C=CCOc1cn([C@@H]2O[C@H](CO)[C@@H](O)[C@H]2O)c(=O)[nH]c1=O | > 600
8 | NC(=O)COc1cn([C@@H]2O[C@H](CO)[C@@H](O)[C@H]2O)c(=O)[nH]c1=O | > 600
9 | C#CCOc1cn([C@H]2C[C@H](O)[C@@H](CO)O2)c(=O)[nH]c1=O | 35 (≈ 9.88 µg/mL)
10 | O=c1[nH]c(=O)n([C@H]2C[C@H](O)[C@@H](CO)O2)cc1O | 14 (≈ 3.42 µg/mL)
11 | C=CCOc1cn([C@H]2C[C@H](O)[C@@H](CO)O2)c(=O)[nH]c1=O | 70 (≈ 19.9 µg/mL)
12 | O=c1[nH]c(=O)n([C@@H]2O[C@H](CO)[C@@H](O)[C@H]2O)cc1OCc1ccc([N+](=O)[O-])cc1 | > 600
13 | NC(=O)COc1cn([C@H]2C[C@H](O)[C@@H](CO)O2)c(=O)[nH]c1=O | 130 (≈ 39.2 µg/mL)
14 | Cc1ccc(COc2cn([C@@H]3O[C@H](CO)[C@@H](O)[C@H]3O)c(=O)[nH]c2=O)cc1 | > 600

— ChEMBL document CHEMBL3244322, “5-O-Alkylated derivatives of 5-hydroxy-2'-deoxyuridine as potential antiviral agents. Anti-herpes activity of 5-propynyloxy-2'-deoxyuridine” (J Med Chem, 1978)
